Values of other authors, collected in US20140005177A1, “PYRIDINYL- AND PYRAZINYL-METHYLOXY-ARYL DERIVATIVES USEFUL AS INHIBITORS OF SPLEEN TYROSINE KINASE (SYK)” (GLAXO GROUP LIMITED, priority 2011, published 2014).

Experiments:
[1] = dosed intranasally, phase I/II, allergic rhinitis; cited from earlier work
[2] = further phase II clinical trial, allergic rhinitis; cited from earlier work
B lymphoma (BKS-2) = settings: murine BKS-2 B lymphoma model; cited from earlier work

SMILES	PGD2 [1]	clinical safety [1]	efficacy versus placebo [2]	tumour burden as measured by the total splenocyte number (B lymphoma (BKS-2))
Oc1cccc(Nc2ncc(F)c(Nc3cccc(O)c3)n2)c1 [Example R112]	statistically significant decrease	safe across a range of indicators	lack of efficacy versus placebo	–
COc1cc(/C=C/C(=O)CC(=O)/C=C/c2ccc(O)c(OC)c2)ccc1O [curcumin]	–	–	–	significant reduction of tumour burden
